Test results: publication PMC9404946, “Antioxidant Capacities and Enzymatic Inhibitory Effects of Different Solvent Fractions and Major Flavones from Celery Seeds Produced in Different Geographic Areas in China” (Antioxidants, 2022)
Marks after values point to notes of the source that are not given here.

Legend:
[1] = Ferric reducing antioxidant power (FRAP); type: biochemical
Method: The measurement of FRAP was based on previous studies with slight modifications. A total of 180 uL of FRAP working solution (acetate buffer (pH 3.6): ferric chloride solution (20 mM): TPTZ solution (10 mM) = 10:1:1) was mixed with 20 μL of sample solution and incubated for 30 min at room temperature. The absorbance was measured at 593 nm. The standard curve was linear from 0 to 30 μg Trolox with an R^2 value of 0.9999 (Absorbance: y = 0.0943x + 0.0126, Figure S2I). The results are expressed as milligrams of TE/g dry weight.

[2] = DPPH radical scavenging assay; type: biochemical; details: main flavonoids and positive controls (Table 5)
Method: The scavenging ability of the free radical DPPH was investigated as described with slight modification. The sample solution (100 μL) and DPPH reagent (0.11 mg/mL, 100 μL) were mixed and incubated (30 min) at room temperature and in darkness. Then, a multi-detection microplate reader was used to measure the absorbance at 517 nm (As). The control group was mixed with DMSO and DPPH reagent in the same volume (A0). A formula was used to calculate the DPPH radical scavenging activity:DPPH radical scavenging activity (%) = [(A0 − As)/A0] × 100, where A0 is the absorbance of the control (untreated group), and As is the absorbance of the test sample. BHT and VC were used as the positive control.

[3] = ABTS radical scavenging assay; type: biochemical
Method: The ABTS radical scavenging activity of each fraction was measured based on the method with slight modifications. A 28 mM ABTS and a 9.6 mM potassium persulfate working solution were prepared, mixed in equal volumes, and the mixture was left to stand for 16 h at room temperature, protected from light. The working solution was diluted with EtOH to reach an absorbance of 0.70 ± 0.02 at 740 nm and used for further experiments. Different extracts or compounds (20 μL) concentrations were mixed with the working solution (180 μL). The mixture was incubated at room temperature for 15 min, and the absorbance was recorded at 734 nm (As). DMSO and ABTS reagents in the same volume were mixed to measure the absorbance as the control (A0). Then, the antioxidant activity of the mixture was determined by calculating the decrease using the following formula:ABTS radical inhibiting activity (%) = (A0 − As)/A0 × 100, where A0 is the absorbance of the control (untreated group), and As is the absorbance of the test sample. BHT and VC were used as the positive control.

[4] = target: T1, porcine pancreatic α-amylase (Sus scrofa, UniProt P00690); assay: α-Amylase inhibitory activity (starch-iodine); type: biochemical
T1 construct: purchased Shanghai Yuanye Biotechnology Co. (Shanghai, China)
T1 sequence (P00690 16-511): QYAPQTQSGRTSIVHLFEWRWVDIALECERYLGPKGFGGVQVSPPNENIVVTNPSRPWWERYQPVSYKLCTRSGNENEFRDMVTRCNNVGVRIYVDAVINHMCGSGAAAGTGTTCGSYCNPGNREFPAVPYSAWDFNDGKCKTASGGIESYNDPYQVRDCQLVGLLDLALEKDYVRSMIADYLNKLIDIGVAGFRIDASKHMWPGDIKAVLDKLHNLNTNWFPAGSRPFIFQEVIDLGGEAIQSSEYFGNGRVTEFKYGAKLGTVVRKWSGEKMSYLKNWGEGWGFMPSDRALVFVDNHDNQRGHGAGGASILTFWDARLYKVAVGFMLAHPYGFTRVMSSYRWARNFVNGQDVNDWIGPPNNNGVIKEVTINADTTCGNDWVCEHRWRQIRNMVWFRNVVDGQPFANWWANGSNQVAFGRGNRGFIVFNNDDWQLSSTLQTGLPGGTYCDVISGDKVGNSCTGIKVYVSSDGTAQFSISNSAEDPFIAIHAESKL
From the text: (§1) Butylated hydroxytoluene (BHT) and ethylene diamine tetraacetic acid (EDTA) were purchased from Sigma-Aldrich (Shanghai, China). […] Methanol (MeOH), ethanol (EtOH), and dichloromethane (DCM) were purchased from Tianjin Fuyu (Tianjin, China). Ammonium acetate (NH4Ac), iodine (I2), potassium iodide (KI), soluble-starch, acetic acid (AcOH), n-butanol (nBuOH), and silica sand were obtained from Guoyao (Shanghai, China). The products were purified by flash column chromatography on 200–300 mesh silica gel purchased from Xinnuo Huagong (Yantai, Shandong, China). Methanol and acetonitrile of the high-performance liquid chromatography (HPLC) grade were purchased from Thermo Fisher Scientific (Waltham, MA, USA). DMSO-D6 was purchased from J&K (Beijing, China).

[5] = Metal chelating activity on ferrous ions (ferrozine); type: biochemical; details: for Metal Chelating: main flavonoids (Table 5)
Method: The iron-chelating activity of each fraction was estimated by the method described by Sapatinha et al. with modifications. Briefly, 50 μL of each sample solution and 50 μL of 1 mM FeCl2 were mixed. Then, the reaction was initiated by adding 100 μL of 2.5 mM ferrozine solution. The mixture was kept at room temperature for 10 min. The absorbance of the resulting solution was measured at 562 nm. The results are expressed as milligrams of ethylenediaminetetraacetic acid (EDTA) equivalent per gram of extract (mg EDTAE/g extract) (calibration curve from different concentrations: 0–55 μg/mL; Absorbance: y = −0.0477x + 3.0616, R² = 0.9966, Figure S2K).

[6] = Cupric reducing antioxidant capacity (CUPRAC); type: biochemical; details: main flavonoids (Table 5)
Method: The cupric ion reducing antioxidant capacity (CUPRAC) was measured according to the method of Drouet et al. with modifications. Briefly, 50 μL of the extract sample was mixed with 150 μL of the CUPRAC solution (composed of 10 mM CuCl2, 7.5 mM neocuproine, and 1 M NH4Ac buffer pH 7; ratio 1:1:1 (v/v/v)). After incubation for 15 min at room temperature, the absorbance value at 450 nm of the reaction mixture was measured. The results were reported as […] of Trolox equivalents (TE) per gram of extract (mg TE/g extract) (calibration curve from different concentrations: 0–70 μg/mL; Absorbance: y = 0.0279x + 0.0126, R² = 0.9997, Figure S2J).

[7] = target: Saccharomyces cerevisiae α-glucosidase; assay: α-Glucosidase inhibitory activity assay (PNPG substrate); type: biochemical; details: main flavonoids and acarbose (Table 5)
From the text: as §1
The α-glucosidase inhibition test was performed as previously described with some variations. PBS (0.1 M, pH = 6.8), α-glucosidase (5 U/mL), and PNPG (5 mM) were prepared and stored at 4 °C for further use. In total, 20 μL of different concentration sample solution (DMSO dissolved) or DMSO, 60 μL of PBS, and 20 μL of α-Glucosidase (0.5 U/mL) were added to a 96-well plate and incubated for 20 min at 37 °C. Then, 20 μL of PNPG (5 mM) solution was added and incubated for another 15 min at 37 °C. Subsequently, 80 μL of Na2CO3 (0.1 M) solution was added to terminate the reaction. […] Inhibition (%) was calculated based on absorbance with the following formula: Inhibitor (%) = (A0 − As)/A0 × 100%, where A0 is the absorbance of the blank group, and As is the absorbance of the test group. The IC50 values were calculated using GraphPad Prism 8.0 (GraphPad Software, Inc., La Jolla, CA, USA) to evaluate the α-glucosidase inhibition activity of the tested compounds.

α-amylase = target: α-amylase; parameters: method as in PMID 32344340; details: previously reported; cited from earlier work
[8] = main flavonoids and positive control (Table 5)
[9] = main flavonoids and positive controls (Table 5)
[10] = solvent fractions and positive control, Trolox equivalent
[11] = solvent fractions and positive controls (Table 3 and text)

SMILES | FRAP [1, 8] | DPPH IC50 [2] | ABTS IC50 [3, 9] | IC50 [4] | Metal Chelating [5] | CUPRAC [6] | IC50 [7] | Fe2+ chelating capacity [5] | α-amylase inhibitory activity IC50 (α-amylase) | FRAP [1, 10] | ABTS IC50 [3, 11]
O=c1cc(-c2ccc(O)cc2)oc2cc(O[C@@H]3O[C@H](CO)[C@@H](O)[C@H](O)[C@H]3O)cc(O)c12 [Apigenin-7-O-Glucoside] | 25.90 ± 0.49 ^i mg TE/g | 4885.33 ± 56.01 ^b μM | 461.00 ± 11.04 ^b μg/mL | 1740 ± 40 µM | 5.69 ± 0.19 ^h mg EDTAE/g | 33.45 ± 0.51 ^g mg TE/g | 77.5 ± 4.84 µM |  |  |  | 
O=c1cc(-c2ccc(O)cc2)oc2cc(O)cc(O)c12 [Apigenin] | 59.41 ± 0.24 ^h mg TE/g | 1292.00 ± 31.00 ^d μM | 223.63 ± 10.35 ^c μg/mL |  | 54.20 ± 1.28 ^c mg EDTAE/g | 76.44 ± 1.83 ^f mg TE/g | 80 ± 0.85 µM | 54.20 mg EDTA/g |  |  | 
O=c1cc(-c2ccc(O)cc2)oc2cc(O[C@@H]3O[C@H](CO)[C@@H](O)[C@H](O)[C@H]3O[C@@H]3OC[C@](O)(CO)[C@H]3O)cc(O)c12 [Apiin] | 5.97 ± 1.49 ^j mg TE/g | 7686.33 ± 200.18 ^a μM | 1055.33 ± 24.68 ^a μg/mL |  | 17.15 ± 1.37 ^f mg EDTAE/g | 25.26 ± 0.18 ^g mg TE/g | 199 ± 14.9 µM |  | 1084 µg/mL |  | 
Cc1cc(C(C)(C)C)c(O)c(C(C)(C)C)c1 [BHT, Butylated hydroxytoluene, reference compound] | 406.39 ± 4.65 ^d mg TE/g | 39.13 ± 0.93 ^g μM | 5.72 ± 0.10 ^h,i μg/mL |  |  |  |  |  |  | 406.39 mg TE/g | 3.79 ± 0.04 ^l μg/mL
COc1cc(-c2cc(=O)c3c(O)cc(O[C@@H]4O[C@H](CO)[C@@H](O)[C@H](O)[C@H]4O)cc3o2)ccc1O [Chrysoeriol-7-O-glucosid] | 203.35 ± 6.33 ^f mg TE/g | 848.23 ± 143.61 ^e μM | 46.64 ± 1.24 ^d μg/mL | 1860 ± 20 µM | 8.22 ± 0.84 ^g mg EDTAE/g | 495.51 ± 6.64 ^d mg TE/g | 39.8 ± 1.05 µM |  |  |  | 
COc1cc(-c2cc(=O)c3c(O)cc(O)cc3o2)ccc1O [Chrysoeriol] | 337.96 ± 0.88 ^e mg TE/g | 580.10 ± 35.54 ^f μM | 16.69 ± 0.55 ^f μg/mL |  | 36.49 ± 0.22 ^d mg EDTAE/g | 947.43 ± 5.72 ^b mg TE/g |  | 36.49 mg EDTA/g |  |  | 
O=c1cc(-c2ccc(O)c(O)c2)oc2cc(OC3OC(CO)C(O)C(O)C3OC3OCC(O)(CO)C3O)cc(O)c12 (stereo not drawn) [Graveobioside A] | 882.04 ± 0.43 ^b mg TE/g | 12.47 ± 0.08 ^h μM | 6.88 ± 0.05 ^h μg/mL |  | 89.98 ± 0.42 ^a mg EDTAE/g | 887.17 ± 8.95 ^c mg TE/g | 104 ± 5.75 µM |  |  |  | 
COc1cc(-c2cc(=O)c3c(O)cc(OC4OC(CO)C(O)C(O)C4OC4OCC(O)(CO)C4O)cc3o2)ccc1O (stereo not drawn) [Graveobioside B] | 166.87 ± 2.97 ^g mg TE/g | 3266.33 ± 365.08 ^c μM | 29.43 ± 1.33 ^e μg/mL |  | 21.32 ± 1.51 ^e mg EDTAE/g | 328.10 ± 14.10 ^e mg TE/g | 104 ± 1.85 µM |  |  |  | 
O=c1cc(-c2ccc(O)c(O)c2)oc2cc(O[C@@H]3O[C@H](CO)[C@@H](O)[C@H](O)[C@H]3O)cc(O)c12 [Luteolin-7-O-glucoside] | 830.71 ± 8.52 ^c mg TE/g | 9.28 ± 0.06 ^i μM | 9.41 ± 0.42 ^g μg/mL |  | 8.51 ± 0.21 ^g mg EDTAE/g | 955.05 ± 3.64 ^b mg TE/g | 49.9 ± 2.85 µM |  |  |  | 
O=c1cc(-c2ccc(O)c(O)c2)oc2cc(O)cc(O)c12 [Luteolin] | 1025.12 ± 10.78 ^a mg TE/g | 4.65 ± 0.16 ^j μM | 4.58 ± 0.02 ^i,j μg/mL | 2110 ± 10 µM | 88.44 ±0.64 ^b mg EDTAE/g | 1502.63 ± 15.92 ^a mg TE/g | 58.8 ± 2.97 µM | 88.44 mg EDTA/g |  |  | 
O=C1O[C@H]([C@@H](O)CO)C(O)=C1O [VC, ascorbic acid, reference compound] |  | 5.32 ± 0.11 ^j μM | 3.79 ± 0.04 ^j μg/mL |  |  |  |  |  |  | 406.39 ± 4.65 ^d mg TE/g | 5.72 ± 0.10 ^l μg/mL
